Marks after values point to notes of the source that are not given here.
Tests used:
Assay in all cases: Spot test of partially purified bacteriocins on strains grown on agar
[1] = tested on: Bacillus vegetative cells; assay type: cell-based
Bacillus spores = assay type: cell-based
[2] = tested on: Clostridia vegetative cells; assay type: cell-based, Clostridium
Clostridia spores = assay type: cell-based, Clostridium
G negative strains = assay type: cell-based
Staphylococcus = tested on: Staphylococcus
Streptococcus = tested on: Streptococcus
Listeria = tested on: Listeria
Brochothrix = tested on: Brochothrix
Carnobacteria = tested on: Carnobacteria
Enterococcus = tested on: Enterococcus
Lactobacillus = tested on: Lactobacillus
Lactococcus = tested on: Lactococcus
Leuconostoc = tested on: Leuconostoc
Pediococcus = tested on: Pediococcus
[3] = 1AU (10 μl/spot of 100 AU/ml), listed as Mesent Y105
[4] = 8AU (10 μl/spot of 800 AU/ml), listed as Mesent Y105

Substance: Enterocin 900: broad spectrum bacteriocin of 71 amino acids (SEQ ID NO:30) produced by Enterococcus faecium 900 (MKKELLNKNEMSRIIGGKINWGNVGGSCVGGAVIGGALGGLGGAGGGCITGAIGSIWDQ; Brochocin-C peptide B;)
- Number of strains inhibited/Number of strains tested ([1]; 1AU (10 μl/spot of 100 AU/ml)): 0/5
- Number of strains inhibited/Number of strains tested ([1]; 8AU (10 μl/spot of 800 AU/ml)): 2/5
- Number of strains inhibited/Number of strains tested (Bacillus spores; 1AU (10 μl/spot of 100 AU/ml)): 0/5
- Number of strains inhibited/Number of strains tested (Bacillus spores; 8AU (10 μl/spot of 800 AU/ml)): 0/5
- Number of strains inhibited/Number of strains tested ([2]; 1AU (10 μl/spot of 100 AU/ml)): 2/8
- Number of strains inhibited/Number of strains tested ([2]; 8AU (10 μl/spot of 800 AU/ml)): 3/8
- Number of strains inhibited/Number of strains tested (Clostridia spores; 1AU (10 μl/spot of 100 AU/ml)): 0/7
- Number of strains inhibited/Number of strains tested (Clostridia spores; 8AU (10 μl/spot of 800 AU/ml)): 0/7
- Number of strains inhibited/Number of strains tested (G negative strains; 1AU (10 μl/spot of 100 AU/ml)): 0/29
- Number of strains inhibited/Number of strains tested (G negative strains; 8AU (10 μl/spot of 800 AU/ml)): 0/29
- Number of strains inhibited/Number of strains tested (Staphylococcus; 1AU (10 μl/spot of 100 AU/ml)): 1/7
- Number of strains inhibited/Number of strains tested (Staphylococcus; 8AU (10 μl/spot of 800 AU/ml)): 1/7
- Number of strains inhibited/Number of strains tested (Streptococcus; 1AU (10 μl/spot of 100 AU/ml)): 0/3
- Number of strains inhibited/Number of strains tested (Streptococcus; 8AU (10 μl/spot of 800 AU/ml)): 0/3
- Number of strains inhibited/Number of strains tested (Listeria; 1AU (10 μl/spot of 100 AU/ml)): 39/42
- Number of strains inhibited/Number of strains tested (Listeria; 8AU (10 μl/spot of 800 AU/ml)): 39/42
- Number of strains inhibited/Number of strains tested (Brochothrix; 1AU (10 μl/spot of 100 AU/ml)): 0/14
- Number of strains inhibited/Number of strains tested (Brochothrix; 8AU (10 μl/spot of 800 AU/ml)): 0/14
- Number of strains inhibited/Number of strains tested (Carnobacteria; 1AU (10 μl/spot of 100 AU/ml)): 1/19
- Number of strains inhibited/Number of strains tested (Carnobacteria; 8AU (10 μl/spot of 800 AU/ml)): 7/19
- Number of strains inhibited/Number of strains tested (Enterococcus; 1AU (10 μl/spot of 100 AU/ml)): 5/14
- Number of strains inhibited/Number of strains tested (Enterococcus; 8AU (10 μl/spot of 800 AU/ml)): 8/14
- Number of strains inhibited/Number of strains tested (Lactobacillus; 1AU (10 μl/spot of 100 AU/ml)): 2/17
- Number of strains inhibited/Number of strains tested (Lactobacillus; 8AU (10 μl/spot of 800 AU/ml)): 5/17
- Number of strains inhibited/Number of strains tested (Lactococcus; 1AU (10 μl/spot of 100 AU/ml)): 4/8
- Number of strains inhibited/Number of strains tested (Lactococcus; 8AU (10 μl/spot of 800 AU/ml)): 4/8
- Number of strains inhibited/Number of strains tested (Leuconostoc; 1AU (10 μl/spot of 100 AU/ml)): 1/9
- Number of strains inhibited/Number of strains tested (Leuconostoc; 8AU (10 μl/spot of 800 AU/ml)): 1/9
- Number of strains inhibited/Number of strains tested (Pediococcus; 1AU (10 μl/spot of 100 AU/ml)): 0/3
- Number of strains inhibited/Number of strains tested (Pediococcus; 8AU (10 μl/spot of 800 AU/ml)): 0/3

Substance: Mesen Y105: mesentericin Y105, an anti-Listeria bacteriocin from Leuconostoc mesenteroides (KYYGNGVHCTKSGCSVNWGEAASAGIHRLANGGNGFW; UniProt P38577 25-61, looked up)
- Number of strains inhibited/Number of strains tested ([1]; 1AU (10 μl/spot of 100 AU/ml)): 3/5
- Number of strains inhibited/Number of strains tested ([1]; 8AU (10 μl/spot of 800 AU/ml)): 5/5
- Number of strains inhibited/Number of strains tested (Bacillus spores; 1AU (10 μl/spot of 100 AU/ml)): 5/5^b
- Number of strains inhibited/Number of strains tested (Bacillus spores; [3]): 5/5
- Number of strains inhibited/Number of strains tested (Bacillus spores; 8AU (10 μl/spot of 800 AU/ml)): 5/5^b
- Number of strains inhibited/Number of strains tested (Bacillus spores; [4]): 5/5
- Number of strains inhibited/Number of strains tested ([2]; 1AU (10 μl/spot of 100 AU/ml)): 0/8
- Number of strains inhibited/Number of strains tested ([2]; 8AU (10 μl/spot of 800 AU/ml)): 1/8^d
- Number of strains inhibited/Number of strains tested [2, 4]: 1/8
- Number of strains inhibited/Number of strains tested (Clostridia spores; 1AU (10 μl/spot of 100 AU/ml)): 0/7
- Number of strains inhibited/Number of strains tested (Clostridia spores; 8AU (10 μl/spot of 800 AU/ml)): 0/7
- Number of strains inhibited/Number of strains tested (G negative strains; 1AU (10 μl/spot of 100 AU/ml)): 0/29
- Number of strains inhibited/Number of strains tested (G negative strains; 8AU (10 μl/spot of 800 AU/ml)): 0/29
- Number of strains inhibited/Number of strains tested (Staphylococcus; 1AU (10 μl/spot of 100 AU/ml)): 1/7^cf
- Number of strains inhibited/Number of strains tested (Staphylococcus; [3]): 1/7
- Number of strains inhibited/Number of strains tested (Staphylococcus; 8AU (10 μl/spot of 800 AU/ml)): 7/7^cf
- Number of strains inhibited/Number of strains tested (Staphylococcus; [4]): 7/7
- Number of strains inhibited/Number of strains tested (Streptococcus; 1AU (10 μl/spot of 100 AU/ml)): 0/3
- Number of strains inhibited/Number of strains tested (Streptococcus; 8AU (10 μl/spot of 800 AU/ml)): 3/3^g
- Number of strains inhibited/Number of strains tested (Streptococcus; [4]): 3/3
- Number of strains inhibited/Number of strains tested (Listeria; 1AU (10 μl/spot of 100 AU/ml)): 36/42^h
- Number of strains inhibited/Number of strains tested (Listeria; [3]): 36/42
- Number of strains inhibited/Number of strains tested (Listeria; 8AU (10 μl/spot of 800 AU/ml)): 42/42
- Number of strains inhibited/Number of strains tested (Brochothrix; 1AU (10 μl/spot of 100 AU/ml)): 0/14
- Number of strains inhibited/Number of strains tested (Brochothrix; 8AU (10 μl/spot of 800 AU/ml)): 0/14
- Number of strains inhibited/Number of strains tested (Carnobacteria; 1AU (10 μl/spot of 100 AU/ml)): 17/19^j
- Number of strains inhibited/Number of strains tested (Carnobacteria; [3]): 17/19
- Number of strains inhibited/Number of strains tested (Carnobacteria; 8AU (10 μl/spot of 800 AU/ml)): 19/19
- Number of strains inhibited/Number of strains tested (Enterococcus; 1AU (10 μl/spot of 100 AU/ml)): 3/14^l
- Number of strains inhibited/Number of strains tested (Enterococcus; [3]): 3/14
- Number of strains inhibited/Number of strains tested (Enterococcus; 8AU (10 μl/spot of 800 AU/ml)): 9/14^l
- Number of strains inhibited/Number of strains tested (Enterococcus; [4]): 9/14
- Number of strains inhibited/Number of strains tested (Lactobacillus; 1AU (10 μl/spot of 100 AU/ml)): 1/17^m
- Number of strains inhibited/Number of strains tested (Lactobacillus; [3]): 1/17
- Number of strains inhibited/Number of strains tested (Lactobacillus; 8AU (10 μl/spot of 800 AU/ml)): 1/17^m
- Number of strains inhibited/Number of strains tested (Lactobacillus; [4]): 2/17
- Number of strains inhibited/Number of strains tested (Lactococcus; 1AU (10 μl/spot of 100 AU/ml)): 0/8
- Number of strains inhibited/Number of strains tested (Lactococcus; 8AU (10 μl/spot of 800 AU/ml)): 1/8^n
- Number of strains inhibited/Number of strains tested (Lactococcus; [4]): 1/8
- Number of strains inhibited/Number of strains tested (Leuconostoc; 1AU (10 μl/spot of 100 AU/ml)): 5/9
- Number of strains inhibited/Number of strains tested (Leuconostoc; 8AU (10 μl/spot of 800 AU/ml)): 6/9^o
- Number of strains inhibited/Number of strains tested (Leuconostoc; [4]): 6/9
- Number of strains inhibited/Number of strains tested (Pediococcus; 1AU (10 μl/spot of 100 AU/ml)): 0/3
- Number of strains inhibited/Number of strains tested (Pediococcus; 8AU (10 μl/spot of 800 AU/ml)): 0/3
